Data taken from US11485728B2, “Small molecules for the treatment of autoimmune diseases and cancer” (Athos Therapeutics, Inc., priority 2020, dated 2022).
pIC50: −log10 of the molar value. Read-outs that look alike come from different tables or passages of the source.

Assays:
[1] = In-vitro half-life in rat liver microsomes; assay type: in vitro ADME; conditions: Rat liver microsomes 0.5 mg/mL; 1 μg/mL drug; NRS; read-out: Metabolic Half-life
Description: (§1) In each of the species (human, rat, mouse) of liver matrix to be tested, a working concentration of 2 μg/mL was prepared of each test article from the 0.5 mg/mL DMSO stock solution by adding 3 μL of 0.5 mg/mL test article stock solution to 747 μL of the 1 mg/mL liver matrix. Incubation was performed at 37±2° C. with gentle, continuous mixing in shaking water bath in 2.0 mL-well capacity 96-Deepwell plates (96-DWP). Samples were retrieved in duplicate at the following time points: 0, 5, 10, 15, 30 and 60 minutes. The final mixture contained 1 μg/mL of drug and 0.5 mg/mL of liver matrix. First, 50 μL of test articles in liver matrix was added to the 96-DWP and pre-warmed the mixture in the 96-DWP for 2 minutes in the 37° C. water bath. The enzymatic reaction was started by the addition of 50 μL of the corresponding 2× NADPH regenerating system (NRS) cofactor solution to all sample wells and stopped by the addition of 300 μL of stop solution (acetonitrile containing 10 ng/mL Tolbutamide as an internal standard (I.Std.). The samples were agitated for 10 minutes and then centrifuged for 20 minutes at 4500 rpm. 25 μL of supernatant was diluted with 475 μL acetonitrile containing I. Std. into a new 96-DWPs for LC-MS/MS analysis.
(§2) Half-life calculations were generated and calculated by Graphpad Prism® software. The half-life of test compound was calculated based on the first-order reaction kinetics. The data was transformed to linear regression (y=log(y) where “y” axis represents the % compound remaining at any given time with respect to time 0 minutes; “x” axis represents time in minutes) in order to calculate the half-life.
(§3) A comparison of metabolic stability in time-course incubation experiments in varying species of liver can provide information of pharmacokinetic properties of drugs attributable to species-related differences in hepatic metabolism. The results of these experiments often assist in further applications such as assessing in vitro metabolite profiling and choosing relevant species for toxicology studies based on similarities relative to the metabolic stability to the human profile. For these experiments, the test compound was tested in parallel with a positive control, Dasatinab, in an enzymatic reaction solution of each species (human and rat) of liver microsomes containing a NADPH regenerating system (NRS). The final mixture contained 1 μg/mL of drug and 0.5 mg/mL of liver matrix. Incubations were performed at 37±2° C. with gentle, continuous mixing in shaking water bath in 96-Deep well plates. The stability of the test compound is monitored using fast, specific and sensitive LC/MS/MS analysis.

[2] = In-vitro half-life in mouse liver microsomes; assay type: in vitro ADME; conditions: Mouse liver microsomes 0.5 mg/mL; 1 μg/mL drug; NRS; read-out: Metabolic Half-life
Description: as §1, §2, §3

CYP2C9 = target: T1, CYP2C9 (Homo sapiens, UniProt P11712); experiment: CYP-direct inhibition, CYP2C9; assay type: in vitro ADME
T1 construct: from tissue; host or cells: pooled human liver microsomes
T1 sequence (P11712 whole entry): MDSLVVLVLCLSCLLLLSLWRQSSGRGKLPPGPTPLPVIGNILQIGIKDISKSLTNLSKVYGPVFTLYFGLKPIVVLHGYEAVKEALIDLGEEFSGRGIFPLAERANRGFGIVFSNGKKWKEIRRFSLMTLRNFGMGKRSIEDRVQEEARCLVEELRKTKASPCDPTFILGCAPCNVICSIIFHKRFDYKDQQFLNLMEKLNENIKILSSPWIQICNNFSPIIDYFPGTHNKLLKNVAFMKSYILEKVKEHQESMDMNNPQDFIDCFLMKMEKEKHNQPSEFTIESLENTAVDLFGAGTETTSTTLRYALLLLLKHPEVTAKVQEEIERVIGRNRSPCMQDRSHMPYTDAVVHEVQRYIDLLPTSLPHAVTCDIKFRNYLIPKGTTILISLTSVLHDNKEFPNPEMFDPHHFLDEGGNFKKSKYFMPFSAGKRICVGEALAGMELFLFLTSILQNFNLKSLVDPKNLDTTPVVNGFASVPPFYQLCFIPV
Description: (§4) Many drugs inhibit cytochrome P450 enzymes to cause clinically significant changes in the pharmacokinetics of other drugs. In vitro cytochrome P450 inhibition, can provide crucial information in evaluating potential clinical drug-drug interactions and is useful for focusing in vivo tests to areas of concern. The cytochrome P450 inhibition assay was developed by preparing a working cocktail solution consisting of six probe substrates 10 μM ethoxy-resorufin (CYP1A2), 100 μM rosiglitazone (CYP2C8), 50 μM diclofenac (CYP2C9), 300 μM S-mephenytoin (CYP2C19), 50 μM dextromethorphan (CYP2D6), and 20 μM midazolam (CYP3A4). A mixture solution consists of 140 uL of 0.286 mg/mL of pooled human liver microsome working solution and 20 uL working solutions of test articles, standard control inhibitors, or positive control placebo and 20 uL of substrate cocktail mixture working solution was prepared. The mixture solution was pre-warm in a gentle shaking bath at 37±2° C. for 5 minutes. The enzymatic reaction started by adding 20 uL of NRS working solution to the mixture solution and incubated for 10 minutes at 37±2° C. To stop the reaction, an addition of 400 μL cold stop solution (acetonitrile containing 50 ng/mL Tolbutamide as an internal standard (I.Std.) was added to the mixture solution. The final concentration of test article, inhibitors, substrates, and cofactors are noted in Table 0.1 below. Two individual samples were prepared for each test compound. The extracted samples were vortexed and then centrifuged at 4500 rpm for 7 minutes using Eppendorf Centrifuge 5910R. 200 uL of supernatant was diluting with 200 uL of 50% Methanol into 96-DW plate for LC/MS/MS analysis
(§5) Concentration-response plots are used to determine the effects of an inhibitor on an enzymatic reaction. A typical concentration-response plot provides fractional activity (Y axis) is plotted as a function of log inhibitor concentration (X axis). The data are fitted using a standard Sigmoidal dose-response equation which is also called a […] logistic equation. The concentration of compound that results in 50% inhibition of maximal activity is termed as the IC50 (inhibitor concentration yielding 50% inhibition). IC50 value is calculated using Prism GraphPad software, version 9. […].
(§6) Cytochrome P450 inhibition of a drug is a key factor in determining pharmacokinetic drug-drug interactions. The objective of this study was to evaluate the inhibition potential of G9a inhibitors on six (6) major human cytochrome P450 enzymes, including CYP1A2, CYP2C8, CYP2C9, CYP2C19, CYP2D6, and CYP3A4. Inhibition was determined by using a substrate cocktail and analyzing the rate of specific metabolites formation. The cytochrome P450 inhibition assay was developed using a cocktail consisting of six (6) probe substrates ethoxy-resorufin (CYP1A2), rosiglitazone (CYP2C8), diclofenac (CYP2C9), S-mephenytoin (CYP2C19), dextromethorphan (CYP2D6), and midazolam (CYP3A4). The cocktail was incubated in human liver microsome with NADPH regenerating system (NRS) in a shaking bath at 37±2° C. The formation of specific metabolites was monitored by LC/MS/MS. Test compound was added to the cocktail-liver microsome mixture at varying concentrations and its effect on cytochrome P450 activity was determined by analyzing the rate of specific metabolite formation. The percent inhibition was calculated and plotted with reference to the concentration, and the IC50 value for inhibition was derived by fitting the data with a using log(inhibitor) vs. normalized response with variable slope least squares fit by Graphpad Prism® software. […].

CYP2C19 = target: T2, CYP2C19 (Homo sapiens, UniProt P33261); experiment: CYP-direct inhibition, CYP2C19; assay type: in vitro ADME
T2 construct: from tissue; host or cells: pooled human liver microsomes
T2 sequence (P33261 whole entry): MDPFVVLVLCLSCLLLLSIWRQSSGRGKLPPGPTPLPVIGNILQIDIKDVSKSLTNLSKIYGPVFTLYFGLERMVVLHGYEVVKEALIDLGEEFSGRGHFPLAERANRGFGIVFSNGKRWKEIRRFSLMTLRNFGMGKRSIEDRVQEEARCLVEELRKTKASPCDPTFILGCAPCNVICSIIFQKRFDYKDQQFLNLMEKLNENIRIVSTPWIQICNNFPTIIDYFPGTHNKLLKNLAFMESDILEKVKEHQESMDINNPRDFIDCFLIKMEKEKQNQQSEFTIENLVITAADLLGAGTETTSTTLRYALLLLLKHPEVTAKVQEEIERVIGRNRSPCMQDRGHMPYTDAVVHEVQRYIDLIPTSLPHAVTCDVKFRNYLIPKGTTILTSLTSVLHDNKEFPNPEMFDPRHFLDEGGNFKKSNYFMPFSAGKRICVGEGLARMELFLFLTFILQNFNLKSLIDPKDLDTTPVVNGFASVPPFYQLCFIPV
Description: as §4, §5, §6

CYP2D6 = target: T3, CYP2D6 (Homo sapiens, UniProt P10635); experiment: CYP-direct inhibition, CYP2D6; assay type: in vitro ADME
T3 construct: from tissue; host or cells: pooled human liver microsomes
T3 sequence (P10635 whole entry): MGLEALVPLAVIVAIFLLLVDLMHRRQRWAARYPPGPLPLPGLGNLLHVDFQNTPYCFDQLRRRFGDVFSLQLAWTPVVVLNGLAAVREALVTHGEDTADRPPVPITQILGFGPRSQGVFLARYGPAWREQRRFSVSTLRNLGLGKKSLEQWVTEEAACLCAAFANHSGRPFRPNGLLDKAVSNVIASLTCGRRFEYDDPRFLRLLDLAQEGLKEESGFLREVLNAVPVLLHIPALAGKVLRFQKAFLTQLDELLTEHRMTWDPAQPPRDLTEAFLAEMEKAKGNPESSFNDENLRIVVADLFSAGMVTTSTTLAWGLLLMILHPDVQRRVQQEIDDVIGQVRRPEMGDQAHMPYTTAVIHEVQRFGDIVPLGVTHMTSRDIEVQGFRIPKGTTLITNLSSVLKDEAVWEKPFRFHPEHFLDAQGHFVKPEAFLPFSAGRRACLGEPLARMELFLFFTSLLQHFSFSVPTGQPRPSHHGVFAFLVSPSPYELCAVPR
Description: as §4, §5, §6

CYP3A4 = target: T4, CYP3A4 (Homo sapiens, UniProt P08684); experiment: CYP-direct inhibition, CYP3A4; assay type: in vitro ADME
T4 construct: from tissue; host or cells: pooled human liver microsomes
T4 sequence (P08684 whole entry): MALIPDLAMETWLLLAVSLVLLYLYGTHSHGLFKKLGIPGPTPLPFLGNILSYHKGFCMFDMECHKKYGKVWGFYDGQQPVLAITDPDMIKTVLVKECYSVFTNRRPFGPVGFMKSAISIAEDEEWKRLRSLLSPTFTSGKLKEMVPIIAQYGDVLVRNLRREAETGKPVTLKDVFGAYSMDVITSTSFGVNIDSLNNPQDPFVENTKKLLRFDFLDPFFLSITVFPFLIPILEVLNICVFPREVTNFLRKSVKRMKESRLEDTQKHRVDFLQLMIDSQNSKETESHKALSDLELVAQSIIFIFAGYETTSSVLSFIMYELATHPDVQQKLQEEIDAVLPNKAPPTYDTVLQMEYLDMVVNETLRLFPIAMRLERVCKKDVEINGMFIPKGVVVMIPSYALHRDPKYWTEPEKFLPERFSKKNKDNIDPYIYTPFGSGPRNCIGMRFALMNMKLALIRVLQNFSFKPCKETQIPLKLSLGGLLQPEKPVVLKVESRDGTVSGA
Description: as §4, §5, §6

PAMPA permeability = conditions: for Papp at 5 h, 20 μM: PAMPA, 5 hours at RT
Description: Parallel artificial membrane permeability (PAMPA) assay is a non-cell based assay designed to predict in vivo biological membrane permeability of drugs in early stage of drug discovery. […] The Corning Gentest Pre-coated PAMPA plate system was designed by 96-well insert system with a 0.45 μm PVDF (polyvinylidene fluoride) filter plate which has been pre-coated with structured tri-layers of phospholipids (lipid/oil/lipid) and a matched receiver microplate.
Donor solutions of test compounds (300 μL, 20 μM in PBS/MeOH 90:10) were added to each well of the donor plate. 200 μL of PBS/MeOH 90:10 was added to each well of the acceptor plate. The acceptor plate was coupled with the donor plate and incubated for 5 hours at room temperature (RT) without agitation. In each plate, compounds were tested in triplicate. At the end of the incubation, drug concentration in the initial donor solution, acceptor and the donor wells were determined using LC/MS/MS. A five (5) points standard curve from 0.1 to 1000 nM for each test compound were prepared. Analyte samples were diluted to within standard curve concentration with ACN/H2O 50:50 prior analysis.
All samples were analyzed by electrospray ionization (ESI) liquid chromatograph/mass spectrometry (LC/MS) system utilizing Sciex 5500 quadropule ion trap (Qtrap) mass spectrometry with Shidmazu Nexera X2 UHPLC. The LC-MS/MS instrument monitored each of the test compound in the study based of their respective mass-to-charge (m/z) transitions and MS parameters. Chromatographic separation was achieved on Phenomenex Luna C18 column (50×2.0 mm, 3 μm particle size) by using a gradient elution: mobile phase A contains 0.1% formic acid in water and mobile phase B contains 0.1% formic acid in acetonitrile; A/B (99:1) from 0 to 1 minutes; to A/B (1:99) from 1 to 4 minutes; A/B (1:99) from 4 to 8 minutes; to A/B (99:1) from 8 to 8.20 minutes; A/B (99:1) from 8.2 to 9 minutes. The flow rate was 0.4 mL/min and the column temperature was maintained at 35° C. and autosampler temperature at 4° C. For detection, the electrospray ionization operated in the positive mode using multiple reaction monitoring (MRM).
Data acquisition, and peak integrations were obtained by Analyst® Version 1.7.1 (Sciex) operating with Windows® (Microsoft). The standard curve regressions and sample concentrations were generated and calculated by Analyst®. Concentrations in the sample solutions were determined based on the measured peak area ratios from the response of the analyte to the internal standard with reference to the standard calibration curve. All sample calculations were calculated using a linear regression with 1/x^2 weighting (where x is the concentration of given calibration standard level).
Permeability of the test compounds was calculated using the following formula:
The permeability of compounds was evaluated with the parallel artificial membrane permeation assay (PAMPA) as an in vivo model of passive diffusion across a porous filter coated with a lipid/oil/lipid tri-layer artificial membrane. […] Donor solutions of test compounds (300 μL, 20 μM in PBS/MeOH 90:10) were added to each well of the donor plate. 200 μL of PBS/MeOH 90:10 was added to each well of the acceptor plate. The acceptor plate was coupled with the donor plate and incubated for 5 hours at room temperature (RT) without agitation. In each plate, compounds were tested in triplicate. At the end of the incubation, drug concentration in the initial donor solution, acceptor and the donor wells were determined using LC/MS/MS. Permeability of test compounds was calculated based on the formula described in the General Procedures above. The PAMPA permeability classification criteria are categorized into three (3) classes with a high (Pe≥1.5×10−6 cm/s), intermediate (5.5×10−8<Pe<1.5×10−6 cm/s), and low (Pe<5.5×10−8 cm/s) permeability.

[3] = human liver microsome, substrate dextromethorphan, read-out: IC50 CYP-2D6
[4] = PAMPA permeability Classification, 20 μM donor
[5] = Permeability, Pe, 20 μM donor in PBS/MeOH 90:10

SMILES	half-life at 1 μg/mL [1] [h]	half-life at 1 μg/mL [2] [h]	pIC50 (CYP2C9)	pIC50 (CYP2C19)	pIC50 (CYP2D6; [3])	pIC50 (CYP3A4)	Papp at 5 h, 20 μM (PAMPA permeability; [4]) [nm/s]	Papp at 5 h, 20 μM (PAMPA permeability; [5]) [nm/s]	permeability / oral absorption potential (in words) (PAMPA permeability)	pIC50 (CYP2D6)
COc1cc2c(NC3CCS(=O)(=O)CC3)nc(N3CCC(F)(F)CC3)nc2cc1OCCCN1CCCC1 [Compound 1, 4-((2-(4,4-difluoropiperidin-1-yl)-6-methoxy-7-(3-(pyrrolidin-1-yl)propoxy)quinazolin-4-yl)amino)tetrahydro-2H-thiopyran 1,1-dioxide]	> 1	> 1	< 4.00	< 4.00	4.66	< 4.00	< 0.55	0.441		
COCCN1CCC(Nc2nc(N3CCC(F)(F)CC3)nc3cc(OCCCN4CCCC4)c(OC)cc23)CC1 [Compound 3, 2-(4,4-difluoropiperidin-1-yl)-6-methoxy-N-(1-(2-methoxyethyl)piperidin-4-yl)-7-(3-(pyrrolidin-1-yl)propoxy)quinazolin-4-amine]	> 1	> 1	< 4.00	< 4.00	5.02	< 4.00	0.55 to 15	4.51		
COCCNc1nc(N2CCC(F)(F)CC2)nc2cc(OCCCN3CCCC3)c(OC)cc12 [Compound 4, 2-(4,4-difluoropiperidin-1-yl)-6-methoxy-N-(2-methoxyethyl)-7-(3-(pyrrolidin-1-yl)propoxy)quinazolin-4-amine]	> 1	> 1	< 4.00	4.22	4.88	< 4.00	> 15	17.7	very high permeability	
COc1cc2c(NCC3CCN(C)CC3)nc(N3CCC(F)(F)CC3)nc2cc1OCCCN1CCCC1 [Compound 5, 2-(4,4-difluoropiperidin-1-yl)-6-methoxy-N-((1-methylpiperidin-4-yl)methyl)-7-(3-(pyrrolidin-1-yl)propoxy)quinazolin-4-amine]	> 1	> 1	< 4.00	< 4.00	< 4.00	< 4.00	< 0.55	0.0649		
COc1cc2c(Nc3ccncc3)nc(N3CCC(F)(F)CC3)nc2cc1OCCCN1CCCC1 [Compound 7, 2-(4,4-difluoropiperidin-1-yl)-6-methoxy-N-(pyridin-4-yl)-7-(3-(pyrrolidin-1-yl)propoxy)quinazolin-4-amine]	0.617	0.727	< 4.00	4.35	4.92	< 4.00	0.55 to 15	5.84		
COc1cc2c(NCC(N)=O)nc(N3CCC(F)(F)CC3)nc2cc1OCCCN1CCCC1 [Compound 9, 2-((2-(4,4-difluoropiperidin-1-yl)-6-methoxy-7-(3-(pyrrolidin-1-yl)propoxy)quinazolin-4-yl)amino)acetamide]	> 1	> 1	< 4.00	< 4.00	< 4.00	< 4.00	< 0.55	0.0981		
COc1cc2c(NC3CCN(C(C)C)CC3)nc(N3CCC(F)(F)CC3)nc2cc1OCCCN1CCCC1 [Compound 400, 2-(4,4-difluoropiperidin-1-yl)-N-(1-isopropylpiperidin-4-yl)-6-methoxy-7-(3-(pyrrolidin-1-yl)propoxy)quinazolin-4-amine, reference compound]	> 1	> 1	< 4.00	< 4.00		< 4.00				4.54

Continued, in another order:

half-life at 1 μg/mL [1] [h]	half-life at 1 μg/mL [2] [h]	pIC50 (CYP2C9)	pIC50 (CYP2C19)	pIC50 (CYP2D6; [3])	pIC50 (CYP3A4)	Papp at 5 h, 20 μM (PAMPA permeability; [4]) [nm/s]	Papp at 5 h, 20 μM (PAMPA permeability; [5]) [nm/s]	permeability / oral absorption potential (in words) (PAMPA permeability)	SMILES	pIC50 (CYP2D6)
0.828	> 1	< 4.00	< 4.00	4.75	< 4.00	> 15	63.8	very high permeability	COc1cc2c(NC3CCOCC3)nc(N3CCC(F)(F)CC3)nc2cc1OCCCN1CCCC1 [Compound 2, 2-(4,4-difluoropiperidin-1-yl)-6-methoxy-7-(3-(pyrrolidin-1-yl)propoxy)-N-(tetrahydro-2H-pyran-4-yl)quinazolin-4-amine]	
> 1	> 1	< 4.00	< 4.00	< 4.00	< 4.00	< 0.55	0.0173		COc1cc2c(NC3CCNCC3)nc(N3CCC(F)(F)CC3)nc2cc1OCCCN1CCCC1 [Compound 8, 2-(4,4-difluoropiperidin-1-yl)-6-methoxy-N-(piperidin-4-yl)-7-(3-(pyrrolidin-1-yl)propoxy)quinazolin-4-amine]	
> 1	> 1	< 4.00	< 4.00	4.53	< 4.00	0.55 to 15	4.58		COc1cc2c(NC3COC3)nc(N3CCC(F)(F)CC3)nc2cc1OCCCN1CCCC1 [Compound 11, 2-(4,4-difluoropiperidin-1-yl)-6-methoxy-N-(oxetan-3-yl)-7-(3-(pyrrolidin-1-yl)propoxy)quinazolin-4-amine]	
